Earlier results on one compound are cited in patent publication US10106508B2, “Quinazoline heterocyclic compound as EGFR kinase inhibitor and preparation and application thereof” (BEIJING SCITECH-MQ PHARMACEUTICALS LIMITED, priority 2015, dated 2018).

The target of one data set is EGFR (Homo sapiens (Human), UniProt P00533). Conditions: molecular level; read-out: IC50 against EGFR activity; cited from earlier work.
In the next data set the test system is remaining 81 kinase. The settings on record: screening of 85 kinases; selectively inhibits EGFR and 3 other mutants; cited from earlier work.

The structures appear in SMILES notation.

Chain of EGFR (P00533 25-1210): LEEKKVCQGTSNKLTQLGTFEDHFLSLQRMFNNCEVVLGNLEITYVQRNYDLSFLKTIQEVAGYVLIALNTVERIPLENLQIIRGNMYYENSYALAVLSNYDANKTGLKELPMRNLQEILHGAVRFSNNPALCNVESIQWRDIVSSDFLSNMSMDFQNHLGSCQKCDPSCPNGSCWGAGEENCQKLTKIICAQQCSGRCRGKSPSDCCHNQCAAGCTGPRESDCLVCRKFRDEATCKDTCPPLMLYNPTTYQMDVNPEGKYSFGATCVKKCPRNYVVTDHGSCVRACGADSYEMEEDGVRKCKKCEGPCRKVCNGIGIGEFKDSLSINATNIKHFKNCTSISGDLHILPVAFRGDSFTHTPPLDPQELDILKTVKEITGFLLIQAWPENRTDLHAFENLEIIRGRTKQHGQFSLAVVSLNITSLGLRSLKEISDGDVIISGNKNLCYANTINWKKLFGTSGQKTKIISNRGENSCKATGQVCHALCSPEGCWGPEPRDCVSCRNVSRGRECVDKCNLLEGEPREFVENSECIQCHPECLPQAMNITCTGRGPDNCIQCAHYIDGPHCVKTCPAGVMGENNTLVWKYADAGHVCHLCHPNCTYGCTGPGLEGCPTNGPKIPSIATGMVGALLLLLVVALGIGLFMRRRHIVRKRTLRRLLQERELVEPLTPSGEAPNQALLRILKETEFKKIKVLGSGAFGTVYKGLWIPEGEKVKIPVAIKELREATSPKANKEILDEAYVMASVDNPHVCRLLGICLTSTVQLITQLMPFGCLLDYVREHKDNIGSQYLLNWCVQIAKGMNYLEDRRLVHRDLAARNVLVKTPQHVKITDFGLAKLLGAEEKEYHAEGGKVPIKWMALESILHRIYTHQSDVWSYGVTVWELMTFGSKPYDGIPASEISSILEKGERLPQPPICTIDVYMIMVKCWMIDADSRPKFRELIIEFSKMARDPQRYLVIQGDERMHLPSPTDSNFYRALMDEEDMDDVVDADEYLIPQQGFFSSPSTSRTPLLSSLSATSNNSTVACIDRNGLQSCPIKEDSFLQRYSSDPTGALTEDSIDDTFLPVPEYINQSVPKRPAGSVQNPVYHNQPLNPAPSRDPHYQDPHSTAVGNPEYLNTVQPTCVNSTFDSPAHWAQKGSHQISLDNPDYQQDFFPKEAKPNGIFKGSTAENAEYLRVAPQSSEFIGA

A word on the IC50: it is the midpoint of a concentration-inhibition curve. Consider `C#Cc1cccc(Nc2ncnc3cc4c(cc23)OCCOCCOCCO4)c1` [icotinib, Icotinib], for which the IC50 on EGFR was 5 µM. Also, in the data set with remaining 81 kinase, the “effect on the remaining 81 kinase” value is on record as “no significant effect”.
